The conditions of this data set: Liquid, Closed cell (Static) method.

± gives the expanded uncertainty stated by the source.

Broadly, the vapor or sublimation pressure is the pressure of vapour in equilibrium with the condensed phase.

In the case of `FC(C(F)(F)F)C(F)(F)F` [1,1,1,2,3,3,3-heptafluoropropane], the “vapor or sublimation pressure” value is on record as 234 ± 1 kPa (278.15 K); 327 ± 1 kPa (288.15 K); 451 ± 1 kPa (298.15 K); 611 ± 1 kPa (308.15 K); 805 ± 2 kPa (318.15 K); 1040 ± 2 kPa (328.15 K).
In the case of `O=C=O` [carbon dioxide], the “vapor or sublimation pressure” value by setting is: (278.15 K) 3960 ± 8 kPa; (288.15 K) 5080 ± 10 kPa; (298.15 K) 6425 ± 13 kPa.

For the origin of these results see the NIST ThermoML archive (doi:10.1021/je100583z).
